Reference: patent US20230398130A1, “METHODS AND COMPOSITIONS FOR DIFFERENTIATING STEM CELLS” (Massachusetts Institute of Technology, priority 2020, published 2023)

What was measured:
ISC-enriched organoids [1] = assay: Primary screen, 384-well 2.5-D organoid differentiation (ENR+CD, 6 days, Target Selective Inhibitor Library, vs whole-plate median): ATP (CellTiter-Glo 3D, CTG); settings: primary screen; for Z.CTG: standard z score; for SSMD.CTG: strictly standardized mean difference; for Dose.FC.CTG: FC vs plate median
ISC-enriched organoids [2] = assay: Primary screen, 384-well 2.5-D organoid differentiation (ENR+CD, 6 days): basal lysozyme secretion (LYZ.NS); type: cell-based, murine; settings: primary screen; for SSMD.LYZ.NS: strictly standardized mean difference; for Dose.FC.LYZ.NS: FC vs plate median; for Z.LYZ.NS: standard z score
Source text: (§1) High-throughput screening.

ISC-enriched organoids [3] = assay: Primary screen, 384-well 2.5-D organoid differentiation (ENR+CD, 6 days): carbachol-induced lysozyme secretion (LYZ.S); type: cell-based, murine; settings: primary screen; for Z.LYZ.S: standard z score; for SSMD.LYZ.S: strictly standardized mean difference; for Dose.FC.LYZ.S: FC vs plate median
Source text: as §1

[4] = 1st of the 4 dose lines of the treatment (dose not given)
[5] = 2nd of the 4 dose lines of the treatment (dose not given)
[6] = 3rd of the 4 dose lines of the treatment (dose not given)
[7] = 4th of the 4 dose lines of the treatment (dose not given)

Row | SMILES | Z.CTG (ISC-enriched organoids [1]; Dose 0.08 uM) | Z.CTG (ISC-enriched organoids [1]; Dose 0.40 uM) | Z.CTG (ISC-enriched organoids [1]; Dose 2.00 uM) | Z.CTG (ISC-enriched organoids [1]; Dose 10.00 uM) | SSMD.CTG (ISC-enriched organoids [1]; [4]) | SSMD.CTG (ISC-enriched organoids [1]; [5]) | SSMD.CTG (ISC-enriched organoids [1]; [6]) | SSMD.CTG (ISC-enriched organoids [1]; [7]) | SSMD.LYZ.NS (ISC-enriched organoids [2]; [4]) | SSMD.LYZ.NS (ISC-enriched organoids [2]; [5]) | SSMD.LYZ.NS (ISC-enriched organoids [2]; [6]) | SSMD.LYZ.NS (ISC-enriched organoids [2]; [7]) | Z.LYZ.S (ISC-enriched organoids [3]; [4]) | Z.LYZ.S (ISC-enriched organoids [3]; [5]) | Z.LYZ.S (ISC-enriched organoids [3]; [6]) | Z.LYZ.S (ISC-enriched organoids [3]; [7]) | SSMD.LYZ.S (ISC-enriched organoids [3]; [4]) | SSMD.LYZ.S (ISC-enriched organoids [3]; [5]) | SSMD.LYZ.S (ISC-enriched organoids [3]; [6]) | SSMD.LYZ.S (ISC-enriched organoids [3]; [7]) | also measured
1 | CCn1c(=O)c2c(nc(/C=C/c3ccc(OC)c(OC)c3)n2C)n(CC)c1=O [Istradefylline] | −0.107 | 0.158 | −0.375 | −0.091 | −0.113 | 0.225 | −0.412 | −0.106 | −0.084 | −0.362 | −0.012 | −0.336 | −0.190 | −0.560 | −0.621 | −0.367 | −0.139 | −0.661 | −0.578 | −0.289 | 
2 | CC(C)(C)c1cc(C(C)(C)C)c(NC(=O)c2c[nH]c3ccccc3c2=O)cc1O [Ivacaftor (VX-770)] | 0.558 | 0.347 | −0.354 | −1.123 | 0.431 | 0.280 | −0.331 | −1.317 | 0.882 | 0.825 | 0.582 | −1.167 | 0.853 | 1.220 | 0.124 | −1.636 | 0.705 | 1.209 | 0.148 | −1.350 | Dose.FC.CTG (ISC-enriched organoids [1]; Dose 0.08 uM): 0.234 log 2 fold change; Dose.FC.CTG (ISC-enriched organoids [1]; Dose 0.40 uM): 0.145 log 2 fold change; Dose.FC.CTG (ISC-enriched organoids [1]; Dose 2.00 uM): −0.148 log 2 fold change; Dose.FC.CTG (ISC-enriched organoids [1]; Dose 10.00 uM): −0.470 log 2 fold change; Dose.FC.LYZ.NS (ISC-enriched organoids [2]; Dose 0.08 uM): 0.099 log 2 fold change; Z.LYZ.NS (ISC-enriched organoids [2]; Dose 0.08 uM): 0.864; Dose.FC.LYZ.NS (ISC-enriched organoids [2]; Dose 0.40 uM): 0.127 log 2 fold change; Z.LYZ.NS (ISC-enriched organoids [2]; Dose 0.40 uM): 1.109; Dose.FC.LYZ.NS (ISC-enriched organoids [2]; Dose 2.00 uM): 0.082 log 2 fold change; Z.LYZ.NS (ISC-enriched organoids [2]; Dose 2.00 uM): 0.717; Dose.FC.LYZ.NS (ISC-enriched organoids [2]; Dose 10.00 uM): −0.142 log 2 fold change; Z.LYZ.NS (ISC-enriched organoids [2]; Dose 10.00 uM): −1.240; Dose.FC.LYZ.S (ISC-enriched organoids [3]; Dose 0.08 uM): 0.132 log 2 fold change; Dose.FC.LYZ.S (ISC-enriched organoids [3]; Dose 0.40 uM): 0.189 log 2 fold change; Dose.FC.LYZ.S (ISC-enriched organoids [3]; Dose 2.00 uM): 0.019 log 2 fold change; Dose.FC.LYZ.S (ISC-enriched organoids [3]; Dose 10.00 uM): −0.253 log 2 fold change
3 | Clc1ccc(N/N=C(\c2ccccc2)c2ccccn2)nc1 [JIB-04] | 0.607 | 0.258 | 0.219 | −0.433 | 0.552 | 0.331 | 0.282 | −0.531 | 0.941 | 0.239 | 0.042 | −0.845 | 1.312 | 0.545 | −0.365 | −0.552 | 0.895 | 0.407 | −0.339 | −0.195 | Dose.FC.CTG (ISC-enriched organoids [1]; Dose 0.08 uM): 0.254 log 2 fold change; Dose.FC.CTG (ISC-enriched organoids [1]; Dose 0.40 uM): 0.108 log 2 fold change; Dose.FC.CTG (ISC-enriched organoids [1]; Dose 2.00 uM): 0.092 log 2 fold change; Dose.FC.CTG (ISC-enriched organoids [1]; Dose 10.00 uM): −0.181 log 2 fold change; Dose.FC.LYZ.NS (ISC-enriched organoids [2]; Dose 0.08 uM): 0.178 log 2 fold change; Z.LYZ.NS (ISC-enriched organoids [2]; Dose 0.08 uM): 1.549; Dose.FC.LYZ.NS (ISC-enriched organoids [2]; Dose 0.40 uM): 0.030 log 2 fold change; Z.LYZ.NS (ISC-enriched organoids [2]; Dose 0.40 uM): 0.264; Dose.FC.LYZ.NS (ISC-enriched organoids [2]; Dose 2.00 uM): 0.006 log 2 fold change; Z.LYZ.NS (ISC-enriched organoids [2]; Dose 2.00 uM): 0.048; Dose.FC.LYZ.NS (ISC-enriched organoids [2]; Dose 10.00 uM): −0.153 log 2 fold change; Z.LYZ.NS (ISC-enriched organoids [2]; Dose 10.00 uM): −1.330; Dose.FC.LYZ.S (ISC-enriched organoids [3]; Dose 0.08 uM): 0.203 log 2 fold change; Dose.FC.LYZ.S (ISC-enriched organoids [3]; Dose 0.40 uM): 0.084 log 2 fold change; Dose.FC.LYZ.S (ISC-enriched organoids [3]; Dose 2.00 uM): −0.056 log 2 fold change; Dose.FC.LYZ.S (ISC-enriched organoids [3]; Dose 10.00 uM): −0.085 log 2 fold change
4 | O=C(Nc1ccccc1)N1CCN(c2nc(-c3ccccc3)ns2)CC1 [JNJ-1661010] | −0.225 | −0.625 | −0.131 | −0.346 | −0.169 | −0.659 | −0.113 | −0.309 | 0.805 | 0.332 | 0.332 | 0.237 | 0.873 | 0.263 | −0.408 | −0.441 | 0.612 | 0.250 | −0.454 | −0.449 | Dose.FC.CTG (ISC-enriched organoids [1]; Dose 0.08 uM): −0.094 log 2 fold change; Dose.FC.CTG (ISC-enriched organoids [1]; Dose 0.40 uM): −0.262 log 2 fold change; Dose.FC.CTG (ISC-enriched organoids [1]; Dose 2.00 uM): −0.055 log 2 fold change; Dose.FC.CTG (ISC-enriched organoids [1]; Dose 10.00 uM): −0.145 log 2 fold change; Dose.FC.LYZ.NS (ISC-enriched organoids [2]; Dose 0.08 uM): 0.122 log 2 fold change; Z.LYZ.NS (ISC-enriched organoids [2]; Dose 0.08 uM): 1.066; Dose.FC.LYZ.NS (ISC-enriched organoids [2]; Dose 0.40 uM): 0.075 log 2 fold change; Z.LYZ.NS (ISC-enriched organoids [2]; Dose 0.40 uM): 0.653; Dose.FC.LYZ.NS (ISC-enriched organoids [2]; Dose 2.00 uM): 0.103 log 2 fold change; Z.LYZ.NS (ISC-enriched organoids [2]; Dose 2.00 uM): 0.897; Dose.FC.LYZ.NS (ISC-enriched organoids [2]; Dose 10.00 uM): 0.047 log 2 fold change; Z.LYZ.NS (ISC-enriched organoids [2]; Dose 10.00 uM): 0.406; Dose.FC.LYZ.S (ISC-enriched organoids [3]; Dose 0.08 uM): 0.135 log 2 fold change; Dose.FC.LYZ.S (ISC-enriched organoids [3]; Dose 0.40 uM): 0.041 log 2 fold change; Dose.FC.LYZ.S (ISC-enriched organoids [3]; Dose 2.00 uM): −0.063 log 2 fold change; Dose.FC.LYZ.S (ISC-enriched organoids [3]; Dose 10.00 uM): −0.068 log 2 fold change
5 | Cc1ccc(NCCCc2ccccc2)c(N)c1 [JSH-23] | 0.462 | 0.548 | 0.176 | 0.110 | 0.462 | 0.536 | 0.179 | 0.139 | 0.371 | 0.452 | −0.012 | −0.250 | 1.064 | 0.686 | 0.032 | −0.171 | 1.259 | 0.611 | 0.030 | −0.147 | Dose.FC.CTG (ISC-enriched organoids [1]; Dose 0.08 uM): 0.193 log 2 fold change; Dose.FC.CTG (ISC-enriched organoids [1]; Dose 0.40 uM): 0.230 log 2 fold change; Dose.FC.CTG (ISC-enriched organoids [1]; Dose 2.00 uM): 0.074 log 2 fold change; Dose.FC.CTG (ISC-enriched organoids [1]; Dose 10.00 uM): 0.046 log 2 fold change; Dose.FC.LYZ.NS (ISC-enriched organoids [2]; Dose 0.08 uM): 0.054 log 2 fold change; Z.LYZ.NS (ISC-enriched organoids [2]; Dose 0.08 uM): 0.474; Dose.FC.LYZ.NS (ISC-enriched organoids [2]; Dose 0.40 uM): 0.079 log 2 fold change; Z.LYZ.NS (ISC-enriched organoids [2]; Dose 0.40 uM): 0.688; Dose.FC.LYZ.NS (ISC-enriched organoids [2]; Dose 2.00 uM): −0.002 log 2 fold change; Z.LYZ.NS (ISC-enriched organoids [2]; Dose 2.00 uM): −0.017; Dose.FC.LYZ.NS (ISC-enriched organoids [2]; Dose 10.00 uM): −0.046 log 2 fold change; Z.LYZ.NS (ISC-enriched organoids [2]; Dose 10.00 uM): −0.399; Dose.FC.LYZ.S (ISC-enriched organoids [3]; Dose 0.08 uM): 0.164 log 2 fold change; Dose.FC.LYZ.S (ISC-enriched organoids [3]; Dose 0.40 uM): 0.106 log 2 fold change; Dose.FC.LYZ.S (ISC-enriched organoids [3]; Dose 2.00 uM): 0.005 log 2 fold change; Dose.FC.LYZ.S (ISC-enriched organoids [3]; Dose 10.00 uM): −0.026 log 2 fold change
